Target: T1, Rsanα1 nicotinic acetylcholine receptor α subunit (Rhipicephalus sanguineus, UniProt V9Z9T0)
T1 construct: full-length Rsanα1 (GenBank KF695387) expressed in Xenopus laevis oocytes; with chicken β2 nAChR subunit
Experiment: two-electrode voltage clamp in Xenopus oocytes, concentration-response curve (agonist)
Format: cell-based

T1 sequence (V9Z9T0 45-525): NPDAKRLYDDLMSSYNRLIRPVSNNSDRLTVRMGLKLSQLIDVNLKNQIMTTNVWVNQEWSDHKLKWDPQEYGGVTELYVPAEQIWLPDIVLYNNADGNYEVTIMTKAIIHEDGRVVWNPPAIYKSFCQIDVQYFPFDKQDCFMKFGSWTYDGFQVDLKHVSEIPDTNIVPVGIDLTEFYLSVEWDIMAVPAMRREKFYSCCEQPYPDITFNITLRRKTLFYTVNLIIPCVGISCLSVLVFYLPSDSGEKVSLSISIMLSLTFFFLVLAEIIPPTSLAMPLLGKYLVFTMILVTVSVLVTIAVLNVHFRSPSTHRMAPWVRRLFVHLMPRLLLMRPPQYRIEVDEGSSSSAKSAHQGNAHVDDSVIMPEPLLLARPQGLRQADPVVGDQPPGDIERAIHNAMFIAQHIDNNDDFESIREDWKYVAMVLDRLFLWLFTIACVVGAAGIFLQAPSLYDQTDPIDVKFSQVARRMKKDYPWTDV
T1 sequence (P09484 19-491 partner): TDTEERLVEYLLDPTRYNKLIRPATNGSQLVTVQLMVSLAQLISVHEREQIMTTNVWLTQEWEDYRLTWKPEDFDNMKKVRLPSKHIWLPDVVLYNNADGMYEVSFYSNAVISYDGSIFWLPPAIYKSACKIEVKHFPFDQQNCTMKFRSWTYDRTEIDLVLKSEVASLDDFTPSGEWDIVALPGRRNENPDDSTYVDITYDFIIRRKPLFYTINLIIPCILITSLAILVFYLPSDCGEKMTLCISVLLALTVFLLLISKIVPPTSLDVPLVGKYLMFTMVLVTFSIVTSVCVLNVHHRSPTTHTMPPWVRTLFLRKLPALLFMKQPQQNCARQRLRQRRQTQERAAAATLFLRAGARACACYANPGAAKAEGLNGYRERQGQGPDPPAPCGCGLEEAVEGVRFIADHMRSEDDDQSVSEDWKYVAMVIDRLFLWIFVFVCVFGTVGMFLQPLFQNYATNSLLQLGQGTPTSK

Work on `CC(=O)OCC[N+](C)(C)C` [acetylcholine] yielded an EC50 of 10.7 µM.

From publication PMC4029082, “Functional characterisation of a nicotinic acetylcholine receptor α subunit from the brown dog tick, Rhipicephalus sanguineus^” (International Journal for Parasitology, 2014)
